Measured values taken from paper PMC12226733, “Evolution of iGluR ligand specificity, polyamine regulation, and ion selectivity inferred from a placozoan epsilon receptor” (Communications Biology, 2025).
Values joined by “and” are separate entries in the source; they are usually repeats but may differ in a detail not shown here. Identical values can stand only once. Like-named read-outs stand apart in the source and are kept apart here.

Legend:
GluA2 D611A + γ2 = target: T1, GluA2 D611A + γ2 (Homo sapiens, UniProt P42262, D611A); test: outside-out patch clamp, block by intracellular spermine, HEK-293T/17 cells; format: biochemical; conditions: for Normalized conductance (Gnorm) AMPA D611A + γ2 / Normalized current (Inorm) AMPA D611A + γ2: single recordings and AVG
T1 construct: expressed in transfected cells; host or cells: HEK-293T/17
Procedure: (§1) Parallel experiments were carried out in human GluA2 homotetramers bearing equivalent Q/R/N and +4 site mutations to compare the regulation of voltage-dependent polyamine block within the broader context of mammalian receptors. Experimental design remained the same, except for using 10 mM glutamate as the agonist used to evoke membrane currents (Fig. 7a, d, g, and j). […] Their properties were accordingly compared to wildtype GluA2(Q) co-expressed with TARP-γ2.
(§2) HEK-293T/17 cells (ATCC) were maintained in MEM supplemented with GlutaMAX and 10% fetal bovine serum (FBS) at 37 °C and 5% CO2. […] Transient transfections were carried out 48 h post-plating using the calcium phosphate precipitation method. After 6–8 hours, cells were washed twice with PBS and maintained in fresh medium. Cells transfected with mammalian GluA2 cDNA (plasmid vector described above) were returned to an incubator at 37 °C for 24–48 hours and cells transfected with Epsilon GluE1αA were incubated at 28 °C for 48–72 hours. In cells co-transfected with TARP-γ2, 30 μM NBQX was included in the medium to minimize AMPAR/auxiliary-induced cytotoxicity. All constructs were co-transfected with a plasmid encoding enhanced green fluorescent protein (eGFP) to identify transfected cells. Electrophysiology responses were recorded from outside-out patches excised from transfected cells. Recording pipettes were composed of borosilicate glass (3 to 6 megaohm, King Precision Glass) coated with dental wax to reduce electrical noise. All recordings were performed using Axopatch 200B amplifier (Molecular Devices, LLC). Current records were filtered at 5 or 10 kHz and sampled at 25–50 kHz. Series resistance (3 to 12 megaohms) was compensated by 95%. Recordings were performed at a range of holding potentials from −100 mV to 100 mV to study polyamine block. Data was acquired using pClamp9 software (Molecular Devices, LLC). All experiments were performed at room temperature. All chemicals were purchased from Sigma-Aldrich, unless otherwise indicated. External solution contained (in mM): 150 NaCl, 5 HEPES, 0.1 CaCl2, 0.1 MgCl, and […], pH 7.3–7.4. […] The osmotic pressure of all solutions was adjusted to 295 to 300 mOsm with sucrose. […] Stocks were thawed on the day of the experiment and used to prepared agonist-containing external solutions. Raw data for all electrophysiology experiments are provided in Supplementary Data 3. Current-voltage (I-V) relationships were fit using Origin 7 (OriginLab) using a ninth order polynomial function to estimate the reversal potential (Vrev).
(§3) Agonist-evoked membrane conductance (G) was calculated using the following equation: G=I/(V−Vrev)
(§4) Conductance-voltage (G-V) relationships were fit using Origin 7 (OriginLab) with the single permeant blocker model as done previously[46]: G=Gmax/1+[Spm]/Kd Where Gmax is the maximal conductance, [Spm] is the internal Spm concentration, and Kd is the dissociation constant.
(§5) Kd is defined as: Kd=koff+kperm/kon=sumofexitrates/bindingrate
(§6) And redefined as: Kd=g*exp(V/h)+L*exp(V/k) Where h and k are voltage dependencies of g and L, respectively, and at 0 mV: g=koff/konandL=kperm/kon

GluA2 Q607S = target: T2, GluA2 Q607S (Homo sapiens, UniProt P42262, Q607S); test: as above; format: biochemical;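 on Normalized conductance (Gnorm): normalized to each receptor's own maximal conductance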
T2 construct: host or cells: HEK-293T/17
Procedure: as §1, §2, §3, §4, §5, §6

[1] = GluA2 Q670S, 10 mV, single recordings and AVG
[2] = GluA2 Q670S, 20 mV, single recordings and AVG
[3] = GluA2 Q670S, 30 mV, single recordings and AVG
[4] = GluA2 Q670S, 40 mV, single recordings and AVG
[5] = GluA2 Q670S, 50 mV, single recordings and AVG
[6] = GluA2 Q670S, 60 mV, single recordings and AVG
[7] = GluA2 Q670S, 70 mV, single recordings and AVG
[8] = GluA2 Q670S, 80 mV, single recordings and AVG
[9] = GluA2 Q670S, 90 mV, single recordings and AVG
[10] = GluA2 Q670S, 100 mV, single recordings and AVG
[11] = GluA2 Q670S, -100 mV, single recordings and AVG

T2 sequence (P42262 25-883 Q607S): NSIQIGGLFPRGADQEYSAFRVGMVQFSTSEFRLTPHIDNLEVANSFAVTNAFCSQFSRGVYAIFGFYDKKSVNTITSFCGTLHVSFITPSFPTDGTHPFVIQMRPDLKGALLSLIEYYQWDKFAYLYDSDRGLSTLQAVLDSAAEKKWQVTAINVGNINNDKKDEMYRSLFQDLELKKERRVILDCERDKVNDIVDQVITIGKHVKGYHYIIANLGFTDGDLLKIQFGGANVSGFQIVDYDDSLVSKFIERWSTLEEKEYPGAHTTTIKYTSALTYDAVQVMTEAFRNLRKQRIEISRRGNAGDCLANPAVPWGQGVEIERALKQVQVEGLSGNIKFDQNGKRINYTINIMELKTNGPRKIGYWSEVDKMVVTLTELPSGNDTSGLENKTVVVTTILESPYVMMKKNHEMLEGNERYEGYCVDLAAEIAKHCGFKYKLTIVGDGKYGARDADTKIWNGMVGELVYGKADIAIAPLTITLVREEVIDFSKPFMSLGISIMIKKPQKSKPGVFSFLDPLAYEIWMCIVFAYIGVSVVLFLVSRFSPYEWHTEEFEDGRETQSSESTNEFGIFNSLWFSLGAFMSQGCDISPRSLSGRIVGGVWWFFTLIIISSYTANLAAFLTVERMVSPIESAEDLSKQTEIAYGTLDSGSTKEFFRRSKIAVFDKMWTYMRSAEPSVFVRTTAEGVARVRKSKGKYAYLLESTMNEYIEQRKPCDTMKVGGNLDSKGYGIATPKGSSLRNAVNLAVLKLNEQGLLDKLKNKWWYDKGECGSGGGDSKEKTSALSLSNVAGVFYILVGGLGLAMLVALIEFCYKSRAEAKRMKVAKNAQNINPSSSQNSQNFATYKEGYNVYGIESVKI
T1 sequence (P42262 25-883 D611A): as the sequence (P42262 25-883 Q607S) above, with S583Q, D587A counted along it
T1 sequence (Q9Y698 whole entry partner): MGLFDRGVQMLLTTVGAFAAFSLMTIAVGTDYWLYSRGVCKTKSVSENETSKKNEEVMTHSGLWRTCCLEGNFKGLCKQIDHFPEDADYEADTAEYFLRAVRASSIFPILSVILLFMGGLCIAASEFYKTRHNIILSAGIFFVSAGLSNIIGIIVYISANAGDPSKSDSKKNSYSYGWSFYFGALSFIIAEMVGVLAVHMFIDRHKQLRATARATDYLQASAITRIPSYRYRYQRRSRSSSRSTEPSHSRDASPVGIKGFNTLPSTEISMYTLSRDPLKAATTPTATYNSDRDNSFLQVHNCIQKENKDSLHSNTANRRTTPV

NCCCNCCCCNCCCN [spermine]
Normalized conductance (Gnorm) AMPA D611A + γ2 (GluA2 D611A + γ2; 0 mV): 0.81 and 0.75 and 0.86 and 0.99 and 0.85
Normalized conductance (Gnorm) AMPA D611A + γ2 (GluA2 D611A + γ2; 10 mV): 0.83 and 0.76 and 0.89 and 0.84
Normalized current (Inorm) AMPA D611A + γ2 (GluA2 D611A + γ2; 10 mV): 0.05 and 0.0569 and 0.06 and 0.0738
Normalized conductance (Gnorm) AMPA D611A + γ2 (GluA2 D611A + γ2; 20 mV): 0.86 and 0.79 and 0.92 and 0.87
Normalized current (Inorm) AMPA D611A + γ2 (GluA2 D611A + γ2; 20 mV): 0.15 and 0.14 and 0.17
Normalized conductance (Gnorm) AMPA D611A + γ2 (GluA2 D611A + γ2; 30 mV): 0.92 and 0.81 and 0.94 and 0.90
Normalized current (Inorm) AMPA D611A + γ2 (GluA2 D611A + γ2; 30 mV): 0.26 and 0.22 and 0.25 and 0.27
Normalized conductance (Gnorm) AMPA D611A + γ2 (GluA2 D611A + γ2; 40 mV): 0.93 and 0.87 and 0.95 and 0.91
Normalized current (Inorm) AMPA D611A + γ2 (GluA2 D611A + γ2; 40 mV): 0.36 and 0.33 and 0.32 and 0.37 and 0.35
Normalized conductance (Gnorm) AMPA D611A + γ2 (GluA2 D611A + γ2; 50 mV): 0.97 and 0.91 and 0.99 and 0.92 and 0.95
Normalized current (Inorm) AMPA D611A + γ2 (GluA2 D611A + γ2; 50 mV): 0.49 and 0.44 and 0.47 and 0.45 and 0.46
Normalized conductance (Gnorm) AMPA D611A + γ2 (GluA2 D611A + γ2; 60 mV): 0.94 and 0.96 and 0.99
Normalized current (Inorm) AMPA D611A + γ2 (GluA2 D611A + γ2; 60 mV): 0.57 and 0.55 and 0.56
Normalized conductance (Gnorm) AMPA D611A + γ2 (GluA2 D611A + γ2; 70 mV): 0.98 and 1.00 and 0.92 and 0.99 and 0.97
Normalized current (Inorm) AMPA D611A + γ2 (GluA2 D611A + γ2; 70 mV): 0.71 and 0.68 and 0.62 and 0.67
Normalized conductance (Gnorm) AMPA D611A + γ2 (GluA2 D611A + γ2; 80 mV): 0.99 and 0.97 and 1.04 and 1.00
Normalized current (Inorm) AMPA D611A + γ2 (GluA2 D611A + γ2; 80 mV): 0.82 and 0.76 and 0.81 and 0.78 and 0.79
Normalized conductance (Gnorm) AMPA D611A + γ2 (GluA2 D611A + γ2; 90 mV): 1.00 and 0.88 and 0.98 and 0.95
Normalized current (Inorm) AMPA D611A + γ2 (GluA2 D611A + γ2; 90 mV): 0.94 and 0.78 and 0.87 and 0.86
Normalized conductance (Gnorm) AMPA D611A + γ2 (GluA2 D611A + γ2; 100 mV): 0.97 and 0.96 and 1.00 and 0.98
Normalized current (Inorm) AMPA D611A + γ2 (GluA2 D611A + γ2; 100 mV): 1.02 and 0.95 and 0.99
Normalized conductance (Gnorm) AMPA D611A + γ2 (GluA2 D611A + γ2; -10 mV): 0.83 and 0.80 and 0.82 and 0.89
Normalized conductance (Gnorm) AMPA D611A + γ2 (GluA2 D611A + γ2; -20 mV): 0.81 and 0.87 and 0.82 and 0.91 and 0.85
Normalized conductance (Gnorm) AMPA D611A + γ2 (GluA2 D611A + γ2; -30 mV): 0.82 and 0.87 and 0.93 and 0.91 and 0.88
Normalized conductance (Gnorm) AMPA D611A + γ2 (GluA2 D611A + γ2; -40 mV): 0.83 and 0.87 and 0.84 and 0.92
Normalized conductance (Gnorm) AMPA D611A + γ2 (GluA2 D611A + γ2; -50 mV): 0.86 and 0.81 and 1.01 and 0.95 and 0.91
Normalized conductance (Gnorm) AMPA D611A + γ2 (GluA2 D611A + γ2; -60 mV): 0.89 and 0.96 and 0.95 and 0.94
Normalized conductance (Gnorm) AMPA D611A + γ2 (GluA2 D611A + γ2; -70 mV): 0.89 and 0.92 and 0.95 and 0.91
Normalized conductance (Gnorm) AMPA D611A + γ2 (GluA2 D611A + γ2; -80 mV): 0.89 and 0.86 and 0.96 and 0.90
Normalized conductance (Gnorm) AMPA D611A + γ2 (GluA2 D611A + γ2; -90 mV): 0.86 and 0.94 and 0.98 and 0.93
Normalized conductance (Gnorm) AMPA D611A + γ2 (GluA2 D611A + γ2; -100 mV): 0.96 and 0.95 and 0.98
Normalized current (Inorm) AMPA D611A + γ2 (GluA2 D611A + γ2; -100 mV): -1.00
h, voltage dependency of block onset (GluA2 D611A + γ2; GluA2 D611A + γ2): −58.8 ± 8.8 mV
k, voltage dependency of block relief (GluA2 D611A + γ2; GluA2 D611A + γ2): 20.8 ± 3.7 mV
Kd (GluA2 D611A + γ2; GluA2 D611A + γ2, 30 µM internal Spm, 10 mM glutamate, read-out: Kd(0mV)): 169 ± 54.6 µM
Normalized current (Inorm) (GluA2 Q607S): -0.0262
h, voltage dependency of block onset (GluA2 Q607S; GluA2 Q607S): −14.0 ± 2.3 mV
k, voltage dependency of block relief (GluA2 Q607S; GluA2 Q607S): 164.4 ± 31.1 mV
Kd (GluA2 Q607S; GluA2 Q607S, 30 µM internal Spm, 10 mM glutamate, read-out: Kd(0mV)): 36.2 ± 6.7 µM
Normalized conductance (Gnorm) (GluA2 Q607S; GluA2 Q670S, 0 mV, single recording): 0.58
Normalized conductance (Gnorm) (GluA2 Q607S; [1]): 0.61 and 0.49 and 0.58 and 0.59 and 0.57
Normalized current (Inorm) (GluA2 Q607S; [1]): 0.0362 and 0.03 and 0.04 and 0.0351 and 0.0359
Normalized conductance (Gnorm) (GluA2 Q607S; [2]): 0.63 and 0.50 and 0.57 and 0.64 and 0.59
Normalized current (Inorm) (GluA2 Q607S; [2]): 0.095 and 0.09 and 0.10 and 0.11
Normalized conductance (Gnorm) (GluA2 Q607S; [3]): 0.65 and 0.52 and 0.57 and 0.61 and 0.59
Normalized current (Inorm) (GluA2 Q607S; [3]): 0.16 and 0.15 and 0.17
Normalized conductance (Gnorm) (GluA2 Q607S; [4]): 0.67 and 0.55 and 0.57 and 0.65 and 0.61
Normalized current (Inorm) (GluA2 Q607S; [4]): 0.23 and 0.22 and 0.25
Normalized conductance (Gnorm) (GluA2 Q607S; [5]): 0.68 and 0.55 and 0.59 and 0.63
Normalized current (Inorm) (GluA2 Q607S; [5]): 0.29 and 0.28 and 0.33 and 0.30
Normalized conductance (Gnorm) (GluA2 Q607S; [6]): 0.74 and 0.61 and 0.65 and 0.67
Normalized current (Inorm) (GluA2 Q607S; [6]): 0.39 and 0.36 and 0.38
Normalized conductance (Gnorm) (GluA2 Q607S; [7]): 0.69 and 0.61 and 0.66
Normalized current (Inorm) (GluA2 Q607S; [7]): 0.43 and 0.41 and 0.48 and 0.44
Normalized conductance (Gnorm) (GluA2 Q607S; [8]): 0.72 and 0.65 and 0.71 and 0.69
Normalized current (Inorm) (GluA2 Q607S; [8]): 0.51 and 0.57 and 0.53
Normalized conductance (Gnorm) (GluA2 Q607S; [9]): 0.70 and 0.62 and 0.71 and 0.68
Normalized current (Inorm) (GluA2 Q607S; [9]): 0.56 and 0.55 and 0.64 and 0.59
Normalized conductance (Gnorm) (GluA2 Q607S; [10]): 0.72 and 0.65 and 0.76 and 0.71
Normalized current (Inorm) (GluA2 Q607S; [10]): 0.65 and 0.77 and 0.69
Normalized conductance (Gnorm) (GluA2 Q607S; GluA2 Q670S, -10 mV, single recordings and AVG): 0.58 and 0.48 and 0.57 and 0.51 and 0.53
Normalized conductance (Gnorm) (GluA2 Q607S; GluA2 Q670S, -20 mV, single recordings and AVG): 0.55 and 0.46 and 0.51 and 0.49 and 0.50
Normalized conductance (Gnorm) (GluA2 Q607S; GluA2 Q670S, -30 mV, single recordings and AVG): 0.54 and 0.46 and 0.52 and 0.50
Normalized conductance (Gnorm) (GluA2 Q607S; GluA2 Q670S, -40 mV, single recordings and AVG): 0.55 and 0.48 and 0.52 and 0.45 and 0.50
Normalized conductance (Gnorm) (GluA2 Q607S; GluA2 Q670S, -50 mV, single recordings and AVG): 0.57 and 0.50 and 0.52 and 0.49
Normalized conductance (Gnorm) (GluA2 Q607S; GluA2 Q670S, -60 mV, single recordings and AVG): 0.64 and 0.55 and 0.54 and 0.56 and 0.57
Normalized conductance (Gnorm) (GluA2 Q607S; GluA2 Q670S, -70 mV, single recordings and AVG): 0.72 and 0.61 and 0.64
Normalized conductance (Gnorm) (GluA2 Q607S; GluA2 Q670S, -80 mV, single recordings and AVG): 0.81 and 0.68 and 0.75 and 0.67 and 0.73
Normalized conductance (Gnorm) (GluA2 Q607S; GluA2 Q670S, -90 mV, single recordings and AVG): 0.92 and 0.76 and 0.83 and 0.81
Normalized conductance (Gnorm) (GluA2 Q607S; [11]): 0.86 and 0.95 and 0.90
Normalized current (Inorm) (GluA2 Q607S; [11]): -1.00
